Experiments:
Format in all cases: cell-based
[1] = system: specific cell lines indicated in each assay; assay: Cell proliferation assay (Prolif.), IC50 or single concentration, cell line as indicated in each table; settings: A549 cells; for Prolif, A549: Table 10; for Rel. Prolif., A549: single concentration, response relative to DMSO
Experimental: (§1) Cell Proliferation Assay (Prolif.) Guo et al. (2018) Nat. Chem. 11:254-63. Specific cell lines are indicated in each assay and cultured in complete growth media. Activity is scored according to the IC50 values relative to DMSO control. “Low” indicates an IC50 greater than 600 nM, “Medium” indicates an IC50 between 300 nM and 600 nM “High” indicates an IC50 less than 300 nM. “Rel.Uptake” refers to uptake activity characterization relative to a single concentration assay. “Low” indicates a response greater than 0.6 times the activity relative to DMSO, “Medium” indicates a response between 0.6 and 0.3 times the activity relative to DMSO, “High” indicates a response less than 0.3 times the activity relative to DMSO.

H929 = assay: Cell proliferation assay (Prolif.), H929; settings: for Prolif. H929: H929 cells, IC50 class relative to DMSO control; for Rel. Prolif., NCI-H929: NCI-H929 cells, single concentration, response relative to DMSO
Experimental: as §1

[2] = system: nucleoside uptake (3H-Thymidine); assay: Rel.Uptake: nucleoside uptake, single concentration assay, cell line as indicated in each table; settings: 293T, nucleoside uptake, response relative to DMSO
Experimental: Nucleoside Uptake Assay (uptake). Nuceloside uptake assays were performed with using 3H-Thymidine as described in Guo et al. (2018) Nat. Chem. 11:254-63. Specific cell lines are indicated in each assay and cultured in complete growth media. Activity is scored according to the IC50 values relative to DMSO control. “Low” indicates an IC50 greater than 600 nM, “Medium” indicates an IC50 between 300 nM and 600 nM “High” indicates an IC50 less than 300 nM. “Rel.Uptake” refers to uptake activity characterization relative to a single concentration assay. “Low” indicates a response greater than 0.6 times the activity relative to DMSO, “Medium” indicates a response between 0.6 and 0.3 times the activity relative to DMSO, “High” indicates a response less than 0.3 times the activity relative to DMSO.

| SMILES | Prolif, A549 [1] | Rel. Prolif., A549 [1] | also measured |
| --- | --- | --- | --- |
| CCCC[C@H]1C(=O)N[C@@H](Cc2ccc3ccccc3c2)C(=O)N(C)[C@@H](COC(C)(C)C)C(=O)NCC(=O)N(C)CCC=CC(=O)OCC(C)(C)C(=O)C(=O)N2CCCC[C@H]2C(=O)O[C@H](CCc2c(OC)ccc(OC)c2OC)c2cccc(c2)OCC(=O)N1C [Compound 564] | low | low | – |
| COc1ccc(CC[C@H]2OC(=O)[C@@H]3CCCCN3C(=O)C(=O)C(C)(C)COC(=O)C=CCCN(C)C(=O)[C@@H](Cc3ccccc3)NC(=O)CN(C)C(=O)[C@@H](Cc3ccccc3)NC(=O)[C@H](Cc3ccc(OC(=O)N4CCOCC4)cc3)N(C)C(=O)COc3cccc2c3F)cc1OC [Compound 867] | – | – | Prolif. H929 (H929): low; Rel. Prolif., NCI-H929 (H929): low |
| CCCC[C@H]1C(=O)N[C@@H](Cc2ccc3ccccc3c2)C(=O)N(C)[C@@H](COC(C)(C)C)C(=O)NCC(=O)N(C)CCC=CC(=O)OCC(C)(C)C(=O)C(=O)N2CCCC[C@H]2C(=O)O[C@H](CCc2ccc(OC)c(OC)c2)c2ccc(F)c(c2)OCC(=O)N1C [Compound 576] | medium | medium | – |
| CCCC[C@H]1C(=O)N[C@@H](Cc2ccc3ccccc3c2)C(=O)N(C)[C@@H](COC(C)(C)C)C(=O)NCC(=O)N(C)CCC=CC(=O)OCC(C)(C)C(=O)C(=O)N2CCCC[C@H]2C(=O)O[C@H](CCc2ccc(OC)c(OC)c2)c2cncc(c2)OCC(=O)N1C [Compound 1565] | low | – | Rel. Uptake, 293T [2]: low |
| CCCC[C@H]1C(=O)N[C@@H](Cc2ccc3ccccc3c2)C(=O)N(C)[C@@H](COC(C)(C)C)C(=O)NCC(=O)N(C)CCC=CC(=O)OCC(C)(C)C(=O)C(=O)N2CCCC[C@H]2C(=O)O[C@H](CCc2cc(F)c(OC)c(OC)c2)c2cccc(c2)OCC(=O)N1C [Compound 568] | medium | medium | – |
| CCCC[C@H]1C(=O)N[C@@H](Cc2ccc3ccccc3c2)C(=O)N(C)[C@@H](COC(C)(C)C)C(=O)NCC(=O)N(C)CCC=CC(=O)OCC(C)(C)C(=O)C(=O)N2CCN(C)C[C@H]2C(=O)O[C@H](CCc2ccc(OC)c(OC)c2)c2cccc(c2)OCC(=O)N1C [Compound 572] | medium | medium | – |
| CCCC[C@H]1C(=O)N[C@@H](Cc2ccc3ccccc3c2)C(=O)N(C)[C@@H](COC(C)(C)C)C(=O)NCC(=O)N(C)CCC=CC(=O)OCC(C)(C)C(=O)C(=O)N2CCCC[C@H]2C(=O)O[C@H](CCc2cc(OC)c(OC)cc2OC)c2cccc(c2)OCC(=O)N1C [Compound 562] | medium | medium | – |
| COc1ccc(CC[C@H]2OC(=O)[C@@H]3CCCCN3C(=O)C(=O)C(C)(C)COC(=O)C=CCCN(C)C(=O)[C@@H](Cc3ccccc3)NC(=O)CN(C)C(=O)[C@@H](Cc3ccccc3)NC(=O)[C@H](Cc3ccc(OC(=O)N4CCOCC4)cc3)NC(=O)COc3cccc2c3)cc1OC [Compound 877] | – | – | Prolif. H929 (H929): low; Rel. Prolif., NCI-H929 (H929): kmv |
| CCCC[C@H]1C(=O)N[C@@H](Cc2ccc3ccccc3c2)C(=O)N(C)[C@@H](COC(C)(C)C)C(=O)NCC(=O)N(C)CCC=CC(=O)OCC(C)(C)C(=O)C(=O)N2CCN(C(=O)OCC3c4ccccc4-c4ccccc43)C[C@H]2C(=O)O[C@H](CCc2ccc(OC)c(OC)c2)c2cccc(c2)OCC(=O)N1C [Compound 571] | low | low | – |
| CC[C@H](C)[C@H]1C(=O)NCC(=O)N(C)CC/C=C\C(=O)OCC(C)(C)C(=O)C(=O)N2CCCC[C@H]2C(=O)O[C@H](CCc2ccc(OC)c(OC)c2)c2cccc(c2)NC(=O)CCC(=O)N(C)[C@@H](CC(C)C)C(=O)N[C@H](Cc2ccccc2)C(=O)N1C [Compound 1592] | – | – | Rel. Uptake, 293T [2]: Low (“Low” indicates a response greater than 0.6 times the activity relative to DMSO); IC50 ([1]; Homo sapiens, Table 17): < 300 nM |
| CCCC[C@H]1C(=O)N[C@@H](Cc2ccc3ccccc3c2)C(=O)N(C)[C@@H](COC(C)(C)C)C(=O)NCC(=O)N(C)CCC=CC(=O)OCC(C)(C)C(=O)C(=O)N2CCCC[C@H]2C(=O)O[C@H](CCc2ccc(OC)c(OC)c2)c2cccc(c2F)OCC(=O)N1C [Compound 1563] | high | – | Rel. Uptake, 293T [2]: high |
| CCCC[C@H]1C(=O)N[C@@H](Cc2ccc3ccccc3c2)C(=O)N(C)[C@@H](COC(C)(C)C)C(=O)NCC(=O)N(C)CCC=CC(=O)OCC(C)(C)C(=O)C(=O)N2CCCC[C@H]2C(=O)O[C@H](CCc2cc(O)c(OC)c(OC)c2)c2cccc(c2)OCC(=O)N1C [Compound 566] | medium | medium | – |
| CCCC[C@H]1C(=O)N[C@@H](Cc2ccc3ccccc3c2)C(=O)N(C)[C@@H](COC(C)(C)C)C(=O)NCC(=O)N(C)CCC=CC(=O)OCC(C)(C)C(=O)C(=O)N2CCCC[C@H]2C(=O)O[C@H](CCc2cc(OC)c(OC)cc2O)c2cccc(c2)OCC(=O)N1C [Compound 567] | medium | medium | – |
| CCCC[C@H]1C(=O)N[C@@H](Cc2ccc3ccccc3c2)C(=O)N(C)[C@@H](COC(C)(C)C)C(=O)NCC(=O)N(C)CCC=CC(=O)OCC(C)(C)C(=O)C(=O)N2CCCC[C@H]2C(=O)O[C@H](CCc2ccc(OC)c(OC)c2F)c2cccc(c2)OCC(=O)N1C [Compound 570] | medium | medium | – |
| CCCC[C@H]1C(=O)N[C@@H](Cc2ccc3ccccc3c2)C(=O)N(C)[C@@H](COC(C)(C)C)C(=O)NCC(=O)N(C)CCC=CC(=O)OCC(C)(C)C(=O)C(=O)N2CCCC[C@H]2C(=O)O[C@H](CCc2ccc(OC)c(O)c2)c2cccc(c2)OCC(=O)N1C [Compound 1564] | high | – | Rel. Uptake, 293T [2]: high |
| CCCC[C@H]1C(=O)N[C@@H](Cc2ccc3ccccc3c2)C(=O)N(C)[C@@H](COC(C)(C)C)C(=O)NCC(=O)N(C)CCC=CC(=O)OCC(C)(C)C(=O)C(=O)N2CCCC[C@H]2C(=O)O[C@H](CCc2cc(OC)c(OC)c(OC)c2)c2cccc(c2)OCC(=O)N1C [Compound 560] | medium | medium | – |
| COc1ccc(CC[C@H]2OC(=O)[C@@H]3CCCCN3C(=O)C(=O)C(C)(C)COC(=O)C=CCCN(C)C(=O)[C@@H](Cc3ccccc3)NC(=O)CN(C)C(=O)[C@@H](Cc3ccccc3)NC(=O)[C@H](Cc3ccc(OC(=O)N4CCOCC4)cc3)N(C)C(=O)CCC(=O)Nc3cccc2c3)cc1OC [Compound 869] | – | – | Prolif. H929 (H929): low; Rel. Prolif., NCI-H929 (H929): low |
| CCCC[C@H]1C(=O)N[C@@H](Cc2ccc3ccccc3c2)C(=O)N(C)[C@@H](COC(C)(C)C)C(=O)NCC(=O)N(C)CCC=CC(=O)OCC(C)(C)C(=O)C(=O)N2CCCC[C@H]2C(=O)O[C@H](CCc2ccc(OC)c(OC)c2)c2cc(F)cc(c2)OCC(=O)N1C [Compound 574] | low | low | – |
| CCCC[C@H]1C(=O)N[C@@H](Cc2ccc3ccccc3c2)C(=O)N(C)[C@@H](COC(C)(C)C)C(=O)NCC(=O)N(C)CCC=CC(=O)OCC(C)(C)C(=O)C(=O)N2CCCC[C@H]2C(=O)O[C@H](CCc2ccc(OC)c(OC)c2O)c2cccc(c2)OCC(=O)N1C [Compound 565] | medium | medium | – |
| CCCC[C@H]1C(=O)N[C@@H](Cc2ccc3ccccc3c2)C(=O)N(C)[C@@H](COC(C)(C)C)C(=O)NCC(=O)N(C)CCC=CC(=O)OCC(C)(C)C(=O)C(=O)N2CCCC[C@H]2C(=O)O[C@H](CCc2cc(OC)cc(OC)c2OC)c2cccc(c2)OCC(=O)N1C [Compound 563] | low | low | – |
| CCCC[C@H]1C(=O)N[C@@H](Cc2ccc3ccccc3c2)C(=O)N(C)[C@@H](COC(C)(C)C)C(=O)NCC(=O)N(C)CCC=CC(=O)OCC(C)(C)C(=O)C(=O)N2CCCC[C@H]2C(=O)O[C@H](CCc2ccc(OC)c(OC)c2OC)c2cccc(c2)OCC(=O)N1C [Compound 561] | medium | medium | – |
| CCCC[C@H]1C(=O)N[C@@H](Cc2ccc3ccccc3c2)C(=O)N(C)[C@@H](COC(C)(C)C)C(=O)NCC(=O)N(C)CCC=CC(=O)OCC(C)(C)C(=O)C(=O)N2CCCC[C@H]2C(=O)O[C@H](CCc2cc(OC)c(OC)cc2F)c2cccc(c2)OCC(=O)N1C [Compound 569] | medium | medium | – |
| COc1ccc(CC[C@H]2OC(=O)[C@@H]3CCCCN3C(=O)C(=O)C(C)(C)COC(=O)C=CCCN(C)C(=O)[C@@H](Cc3ccccc3)NC(=O)CN(C)C(=O)[C@@H](Cc3ccccc3)NC(=O)[C@H](Cc3ccc(OC(=O)N4CCOCC4)cc3)N(C)C(=O)COc3cc(F)cc2c3)cc1OC [Compound 868] | – | – | Prolif. H929 (H929): low; Rel. Prolif., NCI-H929 (H929): low |
| CCCC[C@H]1C(=O)N[C@@H](Cc2ccc3ccccc3c2)C(=O)N(C)[C@@H](COC(C)(C)C)C(=O)NCC(=O)N(C)CCC=CC(=O)OCC(C)(C)C(=O)C(=O)N2CCCC[C@H]2C(=O)O[C@H](CCc2ccc(OC)c(OC)c2)c2cc(ccc2F)OCC(=O)N1C [Compound 573] | low | low | – |

From patent publication US11066416B2, “Rapafucin derivative compounds and methods of use thereof” (The Johns Hopkins University, priority 2016, dated 2021)
